The values below come from patent US10894043B2, “Pharmaceutical composition” (Kyowa Kirin Co., Ltd., priority 2016, dated 2021).

Experiment [1] concerns laser-induced choroidal neovascularization model of a rat. Nature of the experiment: Test Example 7: anti-angiogenic effect on laser-induced choroidal neovascularization model of rat. Particulars: 14 days after laser irradiation, ocular instillation twice a day 5 μL/eye (aflibercept: intravitreal 5 μL/eye once), n=12 or 13, * p<0.05 vs vehicle. It counts as in vivo, Brown Norway rat. On the procedure: The mydriasis of the eyeballs of each male Brown Norway rat (n=12 or 13 for each group) was caused with mydriatic eye drops for examination. A ketamine hydrochloride/xylazine hydrochloride (7:1, v/v) mixed solution was intramuscularly administered (1 mL/kg) to the femur for general anesthesia. Then, the right eyeground was observed using a slit lamp, and 8 sites in the retina were irradiated with laser (wavelength: 532 nm, spot size: 80 μm, irradiation time: 0.05 sec, output: 120 mW) using a multicolor laser photocoagulator to prepare laser-induced choroidal neovascularization model animals.
A vehicle of Example 1 or the nanoparticle composition of the present invention obtained in each of Examples 1 and 2 was administered twice a day by ocular instillation (5 μL/eye, 6 hr:18 hr interval) to each model animal from immediately after the laser irradiation to 14 days after the laser irradiation. […]
A choroidal neovascular site was photographed using a confocal microscope (Nikon ECLIPSE TE 2000-U). For choroidal neovascular evaluation, an area (unit: pixel) that contained a newly formed blood vessel and was at the inner side relative to the highest raised portion was calculated using ImageJ (National Institutes of Health). […]

Experiment [2] concerns laser-induced choroidal neovascularization model of a cynomolgus monkey. As to the kind of experiment: Test Example 8: laser-induced choroidal neovascularization model of cynomolgus monkey, incidence of grade 4 by fluorescein fundus angiography. It counts as in vivo. As to conditions: n = 6. On the procedure:
Twenty-one days before the start of drug administration, both the eyes of each animal (all cases) were irradiated with laser to prepare animal models. Drops of a mydriatic agent were placed in the animal eyes to be irradiated. After confirmation of mydriasis, a mixed solution of ketamine hydrochloride (50 mg/mL) and an aqueous xylazine solution (20 mg/mL) [7:1 (v/v)] was intramuscularly administered (0.2 mL/kg or 10 mg/kg) to each animal. An appropriate amount of a special aid for contact lens placement to the cornea (Scopisol Solution for Eye) was added dropwise to an eyepiece of a retinal laser lens. The retinal laser lens was pressure-bonded to the eyes to be irradiated, and a yellow spot was confirmed. After the confirmation of a yellow spot, 8 sites around the yellow spot excluding the central pit were irradiated with green laser (wavelength: 532 nm, irradiation spot size: 80 μm, irradiation time: 0.1 sec, output: 1000 mW) using a multicolor laser photocoagulator (MC-500, Nidek Co., Ltd.).
According to the test configuration shown in Table 46, a vehicle, the nanoparticle composition of the present invention prepared according to Example 1, and the solution composition obtained in Comparative Example 2 were administered four times a day by ocular instillation for 35 days to the animal. Aflibercept (EYLEA(Registered Trademark) solution for intravitreal injection, Bayer Corp.) was intravitreally injected (once) to the animal.
Ophthalmoscopic examination was carried out during the acclimatization period (day −1) and during the administration period (administration days 7, 14, 21, 28 and 34). Macroscopic examination and light reflex examination were carried out using a portable slit lamp (SL-15, Kowa Co., Ltd.). Drops of a mydriatic agent were placed in the animal eyes. After confirmation of mydriasis, ketamine hydrochloride (50 mg/mL) was intramuscularly administered (0.2 mL/kg or 10 mg/kg) to each animal. The anterior segment of the eye and the ocular media were examined using a portable slit lamp, while the eyegrounds were examined using a head-type binocular indirect ophthalmoscope (IO-aSmall Pupil, Neitz Instruments Co., Ltd.). The eyegrounds were photographed using a fundus camera (VX-10a, Kowa Co., Ltd.) in all cases.
Fluorescein fundus angiography was carried out during the acclimatization period (day −1) and during the administration period (administration days 7, 14, 21, 28 and 34). For examination, a contrast medium (Fluorescite Intravenous Injection 500 mg, Alcon Japan Ltd.) was administered (0.1 mL/kg or 0.1 mL/s) from the cephalic vein of the forearm under mydriasis and anesthesia of the macroscopic examination and the ophthalmoscopic examination. Approximately 1, 3, and 5 minutes after the contrast medium administration, photographs were taken using a fundus camera. Choroidal neovascular grading was carried out on an irradiation spot basis. The fluorescein fundus angiographic images were observed and graded on an irradiation spot basis according to the criteria of Table 47.
The incidences of grades 1 to 4 of each eye at each point in time of examination were each calculated according to the following expression: Incidence of grade (%)=The number of irradiation spots/8×100

Regarding Aflibercept [Aflibercept (EYLEA)], the “choroidal neovascularization area, mean” value in experiment [1] is on record as 102931.7* pixel. In addition, the “Incidence of grade 4” value in experiment [2] (administration day 7, mean) was found to be 4.2%; in experiment [2] (administration day 14, mean), 4.2%; in experiment [2] (administration day 21, mean), 4.2%; in experiment [2] (administration day 28, mean), 4.2%; in experiment [2] (administration day 34, mean) it was 4.2%; in experiment [2] (day −1 (acclimatization period, before administration), mean) it was 43.8%.
